Patent US20130158362A1 (INFACARE PHARMACEUTICAL CORPORATION, priority 2011, published 2013)

System: total serum bilirubin (TSB)
Test: Phase 2b trial: total serum bilirubin (TSB), adjusted and unadjusted, change from baseline
Assay type: in vivo, human
Set-up: total serum bilirubin / total serum bilirubin, Delta (change from baseline) / Change from baseline of total serum bilirubin: unit not given here
Conditions: for total serum bilirubin / total serum bilirubin, Delta (change from baseline): 48 hours, preliminary data; for change from baseline in adjusted TSB, LS mean difference versus placebo, MMRM / change from baseline in adjusted TSB, LS means (SEM), MMRM: observed case
Procedure: Three cohorts of subjects were recruited. This clinical study was designed to evaluate safety and efficacy parameters in each cohort.
Scheduled assessments (including TSB) occurred before treatment and at 0.75 and 2 hours (or 1.5 and 3 hours, depending on PK blood sampling assignment); 6, 12, 24, 48, and 72 hours; and 14 and 30 (except TSB) days after treatment or early termination.
The primary efficacy endpoint was the change in adjusted TSB from baseline to 48 hours after treatment. The adjusted TSB was a calculation of the percentage variance of the TSB level from the age specific threshold for PT initiation per the AAP Guidelines, i.e., an indication of the distance below the PT threshold by time.
The Secondary Efficacy Endpoints were the change from baseline in unadjusted TSB at 48 hours after treatment, change from baseline in adjusted and unadjusted TSB at various other time points after treatment, percent change from baseline in unadjusted TSB, proportion of subjects who require PT/exchange transfusion (ET), time to PT/ET, duration of PT and time to hospital discharge.
Intent-to-treat population (ITT): Defined as all subjects who were randomly assigned treatment in the clinical study, had received IMP, and had at least 1 post baseline TSB measurement during the first 48 hours after treatment. Subjects were summarized based on randomized treatment.
Analysis of Efficacy Parameters: The primary efficacy analysis applied the analysis of covariance (ANCOVA) method to determine if there was a significant difference between treatment groups in change in adjusted TSB levels from baseline to 48 hours post baseline after controlling for the effects of gestational age and adjusted baseline TSB levels. If assumptions of ANCOVA appeared to be violated, a Wilcoxon rank-sum test could be performed instead. Time-to-event variables were analyzed using the Kaplan-Meier method, and Kaplan-Meier survival curves were presented.

[1] = 1.5 mg/kg IM, 6 h, ITT, LOCF, ANCOVA
[2] = 1.5 mg/kg IM, 12 h, ITT, LOCF, ANCOVA
[3] = 1.5 mg/kg IM, 24 h, ITT, LOCF, ANCOVA
[4] = 1.5 mg/kg IM, 48 h/early termination, ITT, LOCF
[5] = 1.5 mg/kg IM, 48 h, ITT, LOCF, ANCOVA
[6] = 1.5 mg/kg IM, 72 h, ITT, LOCF, ANCOVA
[7] = 1.5 mg/kg IM, 14 days/early termination, ITT, LOCF
[8] = 1.5 mg/kg IM, 14 days/early termination, ITT, LOCF, ANCOVA
[9] = 1.5 mg/kg versus the placebo group, 48 Hours/Early termination, PP Population, ANCOVA
[10] = 1.5 mg/kg, 48 Hours/Early termination, PP Population, LOCF
[11] = 1.5 mg/kg, 6 hrs, unadjusted TSB, ITT Population

tin IV mesoporphyrin IX dichloride [Stannsoporfin]
total serum bilirubin (1.5 mg/kg IM (N = 10), treated per protocol): 10.96 ± 1.8
adjusted TSB, Mean (SD) (1.5 mg/kg IM, 6 h, ITT, LOCF): −17.77 (13.326) %
change from baseline in adjusted TSB, Mean (SD) (1.5 mg/kg IM, 6 h, ITT, LOCF): 2.47 (7.928) %
change from baseline in adjusted TSB, Median (1.5 mg/kg IM, 6 h, ITT, LOCF): 2.80%
change from baseline in unadjusted TSB, Mean (SD) (1.5 mg/kg IM, 6 h, ITT, LOCF): 1.50 (0.861) mg/dL
change from baseline in unadjusted TSB, Median (1.5 mg/kg IM, 6 h, ITT, LOCF): 1.50 mg/dL
unadjusted TSB, Mean (SD) (1.5 mg/kg IM, 6 h, ITT, LOCF): 9.09 (2.175) mg/dL
unadjusted TSB, Median (1.5 mg/kg IM, 6 h, ITT, LOCF): 9.60 mg/dL
change from baseline in adjusted TSB, LS mean (SEM) [1]: 2.72 (2.053) %
change from baseline in adjusted TSB, LS mean difference versus placebo [1]: −1.67%
change from baseline in unadjusted TSB, LS Mean (SEM) [1]: 1.38 (0.242) mg/dL
change from baseline in unadjusted TSB, LS Mean Difference versus placebo [1]: -0.21 mg/dL
change from baseline in adjusted TSB, LS mean difference versus placebo, MMRM (1.5 mg/kg IM, 6 h, ITT): −1.44%
change from baseline in adjusted TSB, LS means (SEM), MMRM (1.5 mg/kg IM, 6 h, ITT): 2.94 (2.098) %
adjusted TSB, Mean (SD) (1.5 mg/kg IM, 12 h, ITT, LOCF): −17.41 (17.294) %
change from baseline in adjusted TSB, Mean (SD) (1.5 mg/kg IM, 12 h, ITT, LOCF): 2.83 (12.949) %
change from baseline in adjusted TSB, Median (1.5 mg/kg IM, 12 h, ITT, LOCF): 5.70%
change from baseline in unadjusted TSB, Mean (SD) (1.5 mg/kg IM, 12 h, ITT, LOCF): 2.22 (1.624) mg/dL
change from baseline in unadjusted TSB, Median (1.5 mg/kg IM, 12 h, ITT, LOCF): 2.50 mg/dL
unadjusted TSB, Mean (SD) (1.5 mg/kg IM, 12 h, ITT, LOCF): 9.82 (2.599) mg/dL
unadjusted TSB, Median (1.5 mg/kg IM, 12 h, ITT, LOCF): 10.20 mg/dL
change from baseline in adjusted TSB, LS mean (SEM) [2]: 4.54 (3.015) %
change from baseline in adjusted TSB, LS mean difference versus placebo [2]: −2.59%
change from baseline in unadjusted TSB, LS Mean (SEM) [2]: 2.21 (0.374) mg/dL
change from baseline in unadjusted TSB, LS Mean Difference versus placebo [2]: -0.39 mg/dL
change from baseline in adjusted TSB, LS mean difference versus placebo, MMRM (1.5 mg/kg IM, 12 h, ITT): −2.67%
change from baseline in adjusted TSB, LS means (SEM), MMRM (1.5 mg/kg IM, 12 h, ITT): 3.29 (2.731) %
adjusted TSB, Mean (SD) (1.5 mg/kg IM, 24 h, ITT, LOCF): −24.44 (18.927) %
change from baseline in adjusted TSB, Mean (SD) (1.5 mg/kg IM, 24 h, ITT, LOCF): −4.20 (16.064) %
change from baseline in adjusted TSB, Median (1.5 mg/kg IM, 24 h, ITT, LOCF): −4.30%
change from baseline in unadjusted TSB, Mean (SD) (1.5 mg/kg IM, 24 h, ITT, LOCF): 2.24 (2.084) mg/dL
change from baseline in unadjusted TSB, Median (1.5 mg/kg IM, 24 h, ITT, LOCF): 2.70 mg/dL
unadjusted TSB, Mean (SD) (1.5 mg/kg IM, 24 h, ITT, LOCF): 9.84 (2.656) mg/dL
unadjusted TSB, Median (1.5 mg/kg IM, 24 h, ITT, LOCF): 10.80 mg/dL
change from baseline in adjusted TSB, LS mean (SEM) [3]: −7.62 (4.320) %
change from baseline in adjusted TSB, LS mean difference versus placebo [3]: −7.53%
change from baseline in unadjusted TSB, LS Mean (SEM) [3]: 1.98 (0.549) mg/dL
change from baseline in unadjusted TSB, LS Mean Difference versus placebo [3]: -0.76 mg/dL
change from baseline in adjusted TSB, LS mean difference versus placebo, MMRM (1.5 mg/kg IM, 24 h, ITT): −3.77%
change from baseline in adjusted TSB, LS means (SEM), MMRM (1.5 mg/kg IM, 24 h, ITT): −5.33 (3.948) %
adjusted TSB, Mean (SD) [4]: −35.09 (19.198) %
adjusted TSB, Median [4]: −27.10%
change from baseline in adjusted TSB, Mean (SD) (1.5 mg/kg IM, 48 h, ITT, LOCF): −14.85 (15.442) %
change from baseline in adjusted TSB, Median (1.5 mg/kg IM, 48 h, ITT, LOCF): −12.30%
change from baseline in unadjusted TSB, Mean (SD) (1.5 mg/kg IM, 48 h, ITT, LOCF): 2.32 (2.560) mg/dL
change from baseline in unadjusted TSB, Median (1.5 mg/kg IM, 48 h, ITT, LOCF): 2.70 mg/dL
unadjusted TSB, Mean (SD) (1.5 mg/kg IM, 48 h, ITT, LOCF): 9.91 (3.116) mg/dL
unadjusted TSB, Median (1.5 mg/kg IM, 48 h, ITT, LOCF): 10.90 mg/dL
change from baseline in adjusted TSB, LS mean (SEM) (primary endpoint) [5]: −15.03 (5.273) %
change from baseline in adjusted TSB, LS mean difference versus placebo [5]: −13.45%
change from baseline in unadjusted TSB, LS Mean (SEM) [5]: 2.43 (0.842) mg/dL
change from baseline in unadjusted TSB, LS Mean Difference versus placebo [5]: -1.81 mg/dL
change from baseline in adjusted TSB, LS mean (SEM) (primary endpoint) (1.5 mg/kg IM, 48 h, ITT, LOCF, ANCOVA, listed as stannsoporfin): 15.0%
change from baseline in adjusted TSB, LS mean difference versus placebo, MMRM (1.5 mg/kg IM, 48 h, ITT): −8.26%
change from baseline in adjusted TSB, LS means (SEM), MMRM (1.5 mg/kg IM, 48 h, ITT): −14.94 (5.019) %
total serum bilirubin (1.5 mg/kg IM, intent to treat): 9.91 ± 3.1
total serum bilirubin, Delta (change from baseline) (1.5 mg/kg IM, intent to treat): 2.32 ± 2.5
total serum bilirubin, Delta (change from baseline) (1.5 mg/kg IM, treated per protocol): 3.44 ± 1.5
adjusted TSB, Mean (SD) (1.5 mg/kg IM, 72 h/early termination, ITT, LOCF): −44.82 (19.254) %
change from baseline in adjusted TSB, Mean (SD) (1.5 mg/kg IM, 72 h, ITT, LOCF): −24.58 (15.743) %
change from baseline in adjusted TSB, Median (1.5 mg/kg IM, 72 h, ITT, LOCF): −22.10%
change from baseline in unadjusted TSB, Mean (SD) (1.5 mg/kg IM, 72 h, ITT, LOCF): 1.76 (2.790) mg/dL
change from baseline in unadjusted TSB, Median (1.5 mg/kg IM, 72 h, ITT, LOCF): 2.40 mg/dL
unadjusted TSB, Mean (SD) (1.5 mg/kg IM, 72 h, ITT, LOCF): 9.35 (3.409) mg/dL
unadjusted TSB, Median (1.5 mg/kg IM, 72 h, ITT, LOCF): 10.60 mg/dL
change from baseline in adjusted TSB, LS mean (SEM) [6]: −21.94 (6.232) %
change from baseline in adjusted TSB, LS mean difference versus placebo [6]: −17.19%
change from baseline in unadjusted TSB, LS Mean (SEM) [6]: 2.43 (1.077) mg/dL
change from baseline in unadjusted TSB, LS Mean Difference versus placebo [6]: -2.52 mg/dL
change from baseline in unadjusted TSB, Mean (SD) [7]: −4.08 (2.322) mg/dL
change from baseline in unadjusted TSB, Median [7]: -4.00 mg/dL
unadjusted TSB, Mean (SD) [7]: 3.52 (2.751) mg/dL
unadjusted TSB, Median [7]: 2.80 mg/dL
change from baseline in unadjusted TSB, LS Mean (SEM) [8]: −4.04 (1.258) mg/dL
change from baseline in unadjusted TSB, LS Mean Difference versus placebo [8]: -1.74 mg/dL
48 Hours/Early termination change from baseline in unadjusted TSB, LS mean difference [9]: -0.97 mg/dL
P-value of LS mean difference, change from baseline in unadjusted TSB [9]: 0.338
48 Hours/Early termination change from baseline in unadjusted TSB, Max [10]: 5.2 mg/dL
48 Hours/Early termination change from baseline in unadjusted TSB, Mean (SD) [10]: 3.44 (1.458) mg/dL
48 Hours/Early termination change from baseline in unadjusted TSB, Median [10]: 3.40 mg/dL
48 Hours/Early termination change from baseline in unadjusted TSB, Min [10]: 0.7 mg/dL
48 Hours/Early termination unadjusted TSB, Max [10]: 12.8 mg/dL
48 Hours/Early termination unadjusted TSB, Mean (SD) [10]: 10.96 (1.842) mg/dL
48 Hours/Early termination unadjusted TSB, Median [10]: 11.35 mg/dL
48 Hours/Early termination unadjusted TSB, Min [10]: 6.8 mg/dL
48 Hours/Early termination change from baseline in unadjusted TSB, LS mean (SEM) (1.5 mg/kg, 48 Hours/Early termination, PP Population, LOCF, ANCOVA): 2.96 (0.868) mg/dL
6 hrs Percent Change from Baseline in TSB, Max [11]: 42.0%
6 hrs Percent Change from Baseline in TSB, Mean (SD) [11]: 20.13 (12.268) %
6 hrs Percent Change from Baseline in TSB, Min [11]: −1.7%
6 hrs TSB, Max [11]: 14.1 mg/dL
